Structures are written as SMILES.

As for `N[C@@H](Cc1c[nH]c2ccccc12)C(=O)O`, the solubility (mole fraction) runs as follows: (in ethanol, 288.15 K) 0.000142; (in ethanol, 293.15 K) 0.000178; (in ethanol, 298.15 K) 0.000209; (in ethanol, 303.15 K) 0.000246; (in ethanol, 308.15 K) 0.000284; (in water, 288.15 K) 0.00116. In addition, the solubility (mole fraction) (in water, 293.15 K) is 0.00119; the solubility (mole fraction) (in water, 298.15 K) is 0.00122; the solubility (mole fraction) (in water, 303.15 K) came out at 0.00125; the solubility (mole fraction) (in water, 308.15 K) is 0.00128.
As for `N[C@@H](Cc1cnc[nH]1)C(=O)O`, the solubility (mole fraction) is 1.6e-05 (in ethanol, 288.15 K); 2e-05 (in ethanol, 293.15 K); 2.8e-05 (in ethanol, 298.15 K); 3.1e-05 (in ethanol, 303.15 K); 3.9e-05 (in ethanol, 308.15 K); 0.00379 (in water, 288.15 K). Moreover, the solubility (mole fraction) stood at 0.00418 (in water, 293.15 K); 0.0046 (in water, 298.15 K); 0.00515 (in water, 303.15 K); 0.0057 (in water, 308.15 K).

Source of the values: BigSolDB 2.1.
